Results published in patent US7456154B2 (priority 2001, dated 2008).

Assays:
[1] = system: AChE-R mRNA; test: In situ hybridization of AChE-R mRNA in rat muscle; assay type: in vivo; details: healthy and EAMG rats
Method: In situ hybridization: Tissues were fixed in 4% paraformaldehyde and cut into 7 μm paraffin embedded sections. Spinal cord sections were deparaffinized, rehydrated using serial ethanol dilutions and permeabilized with proteinase K (10 μg/ml at room temp.). Slides were exposed to 5′ biotinylated, fully 2′-oxymethylated AChE-R or AChE-S-specific 50-mer cRNA probes complementary to human ACHE pseudo-intron 4 or exon 6, respectively [Grisaru et al. (2001) id ibid.]. Hybridization was performed overnight at 52° C. in hybridization mixture containing 10 μg/ml probe, 50 μg/ml yeast tRNA, 50 μg/ml heparin and 50% formamide in 375 mM Na chloride, 37.5 mM Na citrate, pH 4.5. For monkey sections, the probe was constructed according to the human AChE-R sequence; for rat sections, according to the mouse sequence. Slides were washed to remove non-hybridized probe, blocked with 1% skim milk containing 0.01% Tween-20 and 2 mM levamisole, an alkaline phosphatase inhibitor used to suppress non-specific staining and incubate with streptavidin-alkaline phosphatase (Amersham Pharmacia). Fast Red™ substrate (Roche Diagnostics) was used for detection. DAPI staining (Sigma Chemical Co., St. Louis, Mo., USA) served to visualize nuclei. Microscope images were analyzed with Image Pro Plus 4.0 (Media Cybernetics) software. […]

[2] = system: EAMG rats; test: Electromyography: CMAP ratio under repetitive 3 Hz nerve stimulation in EAMG rats; assay type: in vivo, rat; details: for Effect on CMAP decline / muscle function in EAMG rats: comparable amounts, Table 1; for CMAP ratio (5th vs. 1st amplitude): average ± SEM; for Effect of oral administration on CMAP decline: oral gavage, 1000 μg/kg pyridostigmine, CMAP 1, 5, 24 h
[3] = system: EAMG rats; test: Repeated daily treatment of EAMG rats (5 days and 1 month): survival, body weight, status; assay type: in vivo, rat
Text: As shown in Example 5, unlike anti-cholinesterases, rEN101 afforded long-term maintenance of stable CMAP. This further enabled the inventors to test whether the cholinergic imbalance contributes to the physiological deterioration that is characteristic of EAMG. Rats were first treated with rEN101 once a day for 5 days, CMAPs being determined prior to each treatment. Both the efficacy of rEN101 in retrieving normal CMAP and its capacity to reduce the inter-animal variability in CMAP values reached similar levels to those of pyridostigmine (FIGS. 11A and 11B). However, the onset of response to pyridostigmine was more rapid (Table 1), while that observed with rEN101 was longer-lasting. Daily oral or i.v administration of rEN101 stabilized CMAPs over the entire course of treatment (FIG. 11B). In contrast, the effect of pyridostigmine wore off within several hours, causing pronounced fluctuations in muscle status (Table 1 and FIG. 11). Among the animals treated daily with pyridostigmine, 5 out of 6 died within the 5 day experimental course. In contrast, 6 out of 8 animals treated once-a-day with rEN101 via o.g. survived the full 5 day period. This conspicuous difference might reflect the susceptibility of EAMG rats to repeated anesthesia and CMAP measurements. In order to avoid these additional stresses and evaluate the effect of the antisense treatment on EAMG pathophysiology, the inventors subjected groups of moderately sick animals to 1 month of daily oral treatment with minimal interference. […] One way repeated measures ANOVA yielded P<0.05 for all other measures (AS vs. other treatments at 4 weeks). The effect of rEN101 on clinical symptoms was also corroborated by body weight changes. Rats treated with saline and Mestinon treated groups lost 13.5 and 11 g/animal, respectively, whereas animals treated with rEN101 gained, on average, 13 g during the treatment period. Thus, daily rEN101 administration promoted long-term change in the course of EAMG in rats with moderate to severe symptoms, under the same conditions in which untreated or pyridostigmine-treated animals deteriorated.

[4] = intravenous, EAMG rats, 0 h, 50 μg/Kg
[5] = intravenous, EAMG rats, 1 h, 50 μg/Kg
[6] = intravenous, EAMG rats, 5 h, 50 μg/Kg
[7] = intravenous, EAMG rats, 24 h, 50 μg/Kg
[8] = oral, EAMG rats, 0 h, 50 μg/Kg oligonucleotide, 1000 μg/Kg pyridostigmine
[9] = oral, EAMG rats, 1 h, 50 μg/Kg oligonucleotide, 1000 μg/Kg pyridostigmine
[10] = oral, EAMG rats, 5 h, 50 μg/Kg oligonucleotide, 1000 μg/Kg pyridostigmine
[11] = oral, EAMG rats, 24 h, 50 μg/Kg oligonucleotide, 1000 μg/Kg pyridostigmine

Molecule | AChE-R mRNA labeling in muscle [1] | Effect on CMAP decline / muscle function in EAMG rats [2] | CMAP ratio (5th vs. 1st amplitude) [2, 4] | CMAP ratio (5th vs. 1st amplitude) [2, 5] | CMAP ratio (5th vs. 1st amplitude) [2, 6] | CMAP ratio (5th vs. 1st amplitude) [2, 7] | Effect of oral administration on CMAP decline ([2]; 50 μg/Kg oligonucleotide) | CMAP ratio (5th vs. 1st amplitude) [2, 8] | CMAP ratio (5th vs. 1st amplitude) [2, 9] | CMAP ratio (5th vs. 1st amplitude) [2, 10] | CMAP ratio (5th vs. 1st amplitude) [2, 11] | CMAP after treatment ([2]; 75 μg/kg i.p., EAMG rats) | Duration of effect on CMAP ([2]; 75 μg/kg i.p., EAMG rats) [h] | Onset of effect on CMAP after injection ([2]; 75 μg/kg i.p., EAMG rats) [min] | CMAP after treatment relative to untreated level ([2]; 75 μg/kg i.p., EAMG rats, untreated 87.6% of first evoked potential) | CMAP ratio 24 h following single oral administration ([2]; single oral dose, rEN101 50 μg/kg, pyridostigmine 1000 μg/kg) | Animals that died within the 5 day experimental course ([3]; EAMG rats treated daily, with repeated anesthesia and CMAP measurements) | Body weight lost during the treatment period ([3]; EAMG rats, 1 month daily oral treatment) [g/animal]
5′-GGAGAAGGAGGAGGAGAGGG-3′ (chemistry not given here) [r-invEN102, reference compound] | unaffected | did not improve muscle function | 0.89 ± 0.02 | 0.89 ± 0.03 | 0.89 ± 0.02 | 0.90 ± 0.02 | had no significant effect | 0.78 ± 0.06 | 0.86 ± 0.05 | 0.86 ± 0.05 | 0.81 ± 0.08 | – | – | – | – | – | – | –
5′-GGGAGAGGAGGAGGAAGAGG-3′ [rEN102] | – | induced similar rectification of CMAP decline | 0.85 ± 0.06 | 1.04 ± 0.01 | 0.98 ± 0.03 | 1.00 ± 0.01 | active in reversing CMAP decline | 0.82 ± 0.02 | 0.86 ± 0.04 | 0.96 ± 0.02 | 0.95 ± 0.03 | – | – | – | – | – | – | –
CN(C)C(=O)Oc1cccc([N+](C)(C)C)c1 [neostigmine bromide, reference compound] | – | – | – | – | – | – | – | – | – | – | – | 107.4 % of the first evoked potential | 2 | 15 | over 120 % of this level | – | – | –
CN(C)C(=O)Oc1ccc[n+](C)c1 [pyridostigmine, reference compound] | – | – | – | – | – | – | restored CMAP for up to several hours | 0.90 ± 0.01 | 0.98 ± 0.01 | 0.96 ± 0.02 | 0.87 ± 0.02 | – | – | – | – | returned to the declining baseline | 5 out of 6 | 11
